Data reported in article PMC6248945, “Antibacterial properties of the pituitary adenylate cyclase-activating polypeptide: A new human antimicrobial peptide” (PLoS ONE, 2018).
Values after ≈ are worked out from the molar mass of the structure shown. Where a SMILES comes first, the peptide text is derived from it.

Legend:
[1] = tested on: Serratia marcescens (ATCC14756); conditions: ATCC14756, 20 h
[2] = tested on: Bacillus amyloliquefaciens (LMG22478); conditions: LMG22478, 20 h
[3] = tested on: Burkholderia thailendensis (ATCC700388); conditions: CLSI microdilution, MHB, 37 °C, 20h, OD read-out; at least triplicate
[4] = tested on: Escherichia coli ATCC25922; conditions: ATCC25922, 20 h
[5] = tested on: Staphylococcus aureus (ATCC6538#P); conditions: ATCC6538, 20 h
Bacillus velezensis = conditions: 20 h
[6] = tested on: Staphylococcus aureus (Newman); conditions: 20 h
[7] = tested on: Bacillus circulans (LSPQ3543); conditions: 20 h
[8] = tested on: Pseudomonas fluorescens (MF37); conditions: 20 h
Bacillus subtilis (PY79) = conditions: PY79, 20 h
DPP-IV = tested on: DPP-IV; parameters: method as in PMID 18353507; conditions: cited from earlier work
[9] = tested on: Burkholderia cenocepacia (LMG19240); conditions: CLSI microdilution, MHB, 37 °C, 20h, OD read-out; at least triplicate
[10] = tested on: Burkholderia cenocepacia (CEP0511 Gvar3b); conditions: CLSI microdilution, MHB, 37 °C, 20h, OD read-out; at least triplicate
[11] = tested on: Pseudomonas putida (KT2440); conditions: CLSI microdilution, MHB, 37 °C, 20h, OD read-out; at least triplicate
[12] = tested on: Pseudomonas aeruginosa (ATCC33350-Sero-2); conditions: ATCC33350, 20 h
[13] = tested on: Burkholderia cenocepacia (K56-2); conditions: 20 h
[14] = tested on: Pseudomonas aeruginosa (PA14); conditions: PA14, 20 h
[15] = tested on: Bacillus cereus (ATCC11778); conditions: ATCC11778, 20 h
[16] = relative to PACAP38; cited from earlier work
[17] = tested on: Actinobacillus pleuropneumoniae (4074); conditions: 20 h
[18] = tested on: Escherichia coli (O157 :H7); conditions: CLSI microdilution, MHB, 37 °C, 20h, OD read-out; at least triplicate
Escherichia coli (JM109) = assay: MIC, CLSI microdilution; format: cell-based; conditions: MHB, 37 °C, 20h, OD read-out, at least triplicate
Description: Assays were performed according to the CLSI microdilution method. Briefly, the bacterial strains were inoculated and allowed to reach an OD600 of 0.08–0.13 prior to dilution to 10^6 CFU/mL in Mueller-Hinton broth (MHB). A bacterial suspension (50 μL) was then added to each well of a 96-well microplate containing serially diluted peptide solutions (50 μL in MHB) and incubated at 37 °C for 20h. A well containing sterilized medium was used as a sterility control and another well containing no added peptide served as a growth control.

[19] = tested on: Burkholderia cenocepacia (LMG18829); conditions: LMG18829, 20 h
Bacillus subtilis (2597) = conditions: 2597, 20 h
[20] = tested on: Burkholderia cenocepacia (J2315); conditions: 20 h

Q: With `CC[C@H](C)[C@H](NC(=O)CNC(=O)[C@H](CC(=O)O)NC(=O)[C@H](CO)NC(=O)[C@@H](N)Cc1c[nH]cn1)C(=O)N[C@@H](Cc1ccccc1)C(=O)N[C@H](C(=O)N[C@@H](CC(=O)O)C(=O)N[C@@H](CO)C(=O)N[C@@H](Cc1ccc(O)cc1)C(=O)N[C@@H](CO)C(=O)N[C@@H](CCCNC(=N)N)C(=O)N[C@@H](Cc1ccc(O)cc1)C(=O)N[C@@H](C)C(=O)N[C@@H](CCCCN)C(=O)N[C@@H](CCC(N)=O)C(=O)N[C@@H](CCSC)C(=O)N[C@@H](C)C(=O)N[C@H](C(=O)N[C@@H](C)C(=O)N[C@@H](CCCCN)C(=O)N[C@@H](Cc1ccc(O)cc1)C(=O)N[C@@H](CC(C)C)C(=O)N[C@@H](C)C(=O)N[C@@H](C)C(=O)N[C@H](C(=O)N[C@@H](CC(C)C)C(=O)NCC(=O)N[C@@H](CCCCN)C(=O)N[C@@H](CCCNC(=N)N)C(=O)N[C@@H](Cc1ccc(O)cc1)C(=O)N[C@@H](CCCCN)C(=O)N[C@@H](CCC(N)=O)C(=O)N[C@@H](CCCNC(=N)N)C(=O)N[C@H](C(=O)N[C@@H](CCCCN)C(=O)N[C@@H](CC(N)=O)C(=O)N[C@@H](CCCCN)C(N)=O)C(C)C)C(C)C)C(C)C)[C@@H](C)O` [compound 6, [Ala^14,20]PACAP38] (H-HSDGIFTDSYSRYAKQMAVAKYLAAVLGKRYKQRVKNK-NH2) as the compound, how does the “MIC, Serratia marcescens (ATCC14756)” value [1] read?
A: >200 µg/mL

Q: And the “MIC, Bacillus amyloliquefaciens” value [2]?
A: 9 µg/mL (≈ 2.05 µM)

Q: And the “MIC, Burkholderia thailendensis (ATCC700388)” value [3]?
A: >200 µg/mL

Q: And the “MIC, Escherichia coli ATCC25922” value [4]?
A: >200 µg/mL

Q: And the “MIC, Staphylococcus aureus (ATCC6538#P)” value [5]?
A: >200 µg/mL

Q: What about the “MIC, Bacillus velezensis” value (Bacillus velezensis) of the same compound?
A: 52 µg/mL (≈ 11.8 µM)

Q: What about the “MIC, Staphylococcus aureus (Newman)” value [6] of the same compound?
A: >200 µg/mL

Q: What about the “MIC, Bacillus circulans (LSPQ3543)” value [7] of the same compound?
A: 94 µg/mL (≈ 21.4 µM)

Q: What about the “MIC, Pseudomonas fluorescens (MF37)” value [8] of the same compound?
A: >200 µg/mL

Q: And the “MIC, Bacillus subtilis (PY79)” value (Bacillus subtilis (PY79))?
A: 3.5 µg/mL (≈ 0.797 µM)

Q: And the “Metabolic stability against DPP-IV” value (DPP-IV)?
A: improved metabolic stability

Q: And the “MIC, Burkholderia cenocepacia (LMG19240)” value [9]?
A: >200 µg/mL

Q: What about the “MIC, Burkholderia cenocepacia (CEP0511 Gvar3b)” value [10] of the same compound?
A: >200 µg/mL

Q: And the “MIC, Pseudomonas putida (KT2440)” value [11]?
A: 113 µg/mL (≈ 25.7 µM)

Q: What about the “MIC, Pseudomonas aeruginosa (ATCC33350-Sero-2)” value [12] of the same compound?
A: >200 µg/mL

Q: What about the “MIC, Burkholderia cenocepacia (K56-2)” value [13] of the same compound?
A: >200 µg/mL

Q: And the “MIC, Pseudomonas aeruginosa (PA14)” value [14]?
A: >200 µg/mL

Q: And the “MIC, Bacillus cereus (ATCC11778)” value [15]?
A: >200 µg/mL

Q: And the “Metabolic stability in human plasma” value [16]?
A: improved metabolic stability

Q: And the “MIC, Actinobacillus pleuropneumoniae” value [17]?
A: >200 µg/mL

Q: What about the “MIC, Escherichia coli (O157 :H7)” value [18] of the same compound?
A: 113 µg/mL (≈ 25.7 µM)

Q: What about the “MIC, Escherichia coli (JM109)” value (Escherichia coli (JM109)) of the same compound?
A: 37 µg/mL (≈ 8.42 µM)

Q: And the “MIC, Burkholderia cenocepacia (LMG18829)” value [19]?
A: >200 µg/mL

Q: What about the “MIC, Bacillus subtilis (2597)” value (Bacillus subtilis (2597)) of the same compound?
A: 187 µg/mL (≈ 42.6 µM)

Q: And the “MIC, Burkholderia cenocepacia (J2315)” value [20]?
A: 8 µg/mL (≈ 1.82 µM)
